{
  "source": "the supplement of paper PMC4380931",
  "experiment_in_all_cases": "apoptotic fraction of cells (caspase-3 NucView488 positive); higher = more apoptosis",
  "key": {"LOXIMVI": {"test_system": "LOXIMVI", "experimental": "(§1)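 BRAF V600E/D melanoma cell lines were seeded in 96-well plates, treated in 4 replicates with seven doses (3.16 nM to 3.16 uM) of RAF/MEK inhibitors for 24, 48 or 72 h, and stained with Hoechst 33342 (nuclei) and DEVD-NucView488 caspase-3 substrate. Plates were imaged on an Operetta. Relative viability is the cell count normalised to a DMSO-treated control; apoptosis fraction is the fraction of NucView488-positive nuclei.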"}, "WM115": {"test_system": "WM115", "experimental": "as §1"}, "SKMEL28": {"test_system": "SKMEL28", "experimental": "as §1"}, "MMACSF": {"test_system": "MMACSF", "experimental": "as §1"}},
  "note": "± gives the standard deviation of the averaged measurements.",
  "data": [
    {"smiles": "CCCS(=O)(=O)Nc1ccc(F)c(C(=O)c2c[nH]c3ncc(-c4ccc(Cl)cc4)cc23)c1F", "note": "[Vemurafenib]", "values": [
      {"measurement": "apoptotic fraction of cells", "setting": "LOXIMVI; 48 h, 0.1 µM", "result": "0.0455 ± 0.0033"},
      {"measurement": "apoptotic fraction of cells", "setting": "LOXIMVI; 48 h, 0.316 µM", "result": "0.0414 ± 0.0058"},
      {"measurement": "apoptotic fraction of cells", "setting": "LOXIMVI; 48 h, 1 µM", "result": "0.0496 ± 0.0083"},
      {"measurement": "apoptotic fraction of cells", "setting": "LOXIMVI; 48 h, 3.16 µM", "result": "0.0897 ± 0.0089"},
      {"measurement": "apoptotic fraction of cells", "setting": "LOXIMVI; 72 h, 0.00316 µM", "result": "0.191 ± 0.043"},
      {"measurement": "apoptotic fraction of cells", "setting": "LOXIMVI; 72 h, 0.01 µM", "result": "0.153 ± 0.17"},
      {"measurement": "apoptotic fraction of cells", "setting": "LOXIMVI; 72 h, 0.0316 µM", "result": "0.0537 ± 0.022"},
      {"measurement": "apoptotic fraction of cells", "setting": "LOXIMVI; 72 h, 0.1 µM", "result": "0.0438 ± 0.0045"},
      {"measurement": "apoptotic fraction of cells", "setting": "LOXIMVI; 72 h, 0.316 µM", "result": "0.0484 ± 0.0038"},
      {"measurement": "apoptotic fraction of cells", "setting": "LOXIMVI; 72 h, 1 µM", "result": "0.074 ± 0.0069"},
      {"measurement": "apoptotic fraction of cells", "setting": "LOXIMVI; 72 h, 3.16 µM", "result": "0.129 ± 0.0085"},
      {"measurement": "apoptotic fraction of cells", "setting": "WM115; 24 h, 0.00316 µM", "result": "0.0555 ± 0.013"},
      {"measurement": "apoptotic fraction of cells", "setting": "WM115; 24 h, 0.01 µM", "result": "0.0451 ± 0.015"},
      {"measurement": "apoptotic fraction of cells", "setting": "WM115; 24 h, 0.0316 µM", "result": "0.0561 ± 0.015"},
      {"measurement": "apoptotic fraction of cells", "setting": "WM115; 24 h, 0.1 µM", "result": "0.0385 ± 0.0038"},
      {"measurement": "apoptotic fraction of cells", "setting": "WM115; 24 h, 0.316 µM", "result": "0.0444 ± 0.014"},
      {"measurement": "apoptotic fraction of cells", "setting": "WM115; 24 h, 1 µM", "result": "0.0572 ± 0.024"},
      {"measurement": "apoptotic fraction of cells", "setting": "WM115; 24 h, 3.16 µM", "result": "0.0792 ± 0.02"},
      {"measurement": "apoptotic fraction of cells", "setting": "WM115; 48 h, 0.00316 µM", "result": "0.0621 ± 0.0095"},
      {"measurement": "apoptotic fraction of cells", "setting": "WM115; 48 h, 0.01 µM", "result": "0.0504 ± 0.016"},
      {"measurement": "apoptotic fraction of cells", "setting": "WM115; 48 h, 0.0316 µM", "result": "0.0424 ± 0.01"},
      {"measurement": "apoptotic fraction of cells", "setting": "WM115; 48 h, 0.1 µM", "result": "0.0407 ± 0.0082"},
      {"measurement": "apoptotic fraction of cells", "setting": "WM115; 48 h, 0.316 µM", "result": "0.0303 ± 0.0054"},
      {"measurement": "apoptotic fraction of cells", "setting": "WM115; 48 h, 1 µM", "result": "0.045 ± 0.0026"},
      {"measurement": "apoptotic fraction of cells", "setting": "WM115; 48 h, 3.16 µM", "result": "0.116 ± 0.035"},
      {"measurement": "apoptotic fraction of cells", "setting": "WM115; 72 h, 0.00316 µM", "result": "0.0323 ± 0.0042"},
      {"measurement": "apoptotic fraction of cells", "setting": "WM115; 72 h, 0.01 µM", "result": "0.0325 ± 0.0046"},
      {"measurement": "apoptotic fraction of cells", "setting": "WM115; 72 h, 0.0316 µM", "result": "0.0317 ± 0.0037"},
      {"measurement": "apoptotic fraction of cells", "setting": "WM115; 72 h, 0.1 µM", "result": "0.0278 ± 0.0037"},
      {"measurement": "apoptotic fraction of cells", "setting": "WM115; 72 h, 0.316 µM", "result": "0.0361 ± 0.0031"},
      {"measurement": "apoptotic fraction of cells", "setting": "WM115; 72 h, 1 µM", "result": "0.125 ± 0.019"},
      {"measurement": "apoptotic fraction of cells", "setting": "WM115; 72 h, 3.16 µM", "result": "0.407 ± 0.05"},
      {"measurement": "apoptotic fraction of cells", "setting": "SKMEL28; 48 h, 0.00316 µM", "result": "0.0412 ± 0.0036"},
      {"measurement": "apoptotic fraction of cells", "setting": "SKMEL28; 48 h, 0.01 µM", "result": "0.0316 ± 0.0037"},
      {"measurement": "apoptotic fraction of cells", "setting": "SKMEL28; 48 h, 0.0316 µM", "result": "0.0337 ± 0.004"},
      {"measurement": "apoptotic fraction of cells", "setting": "SKMEL28; 48 h, 0.1 µM", "result": "0.0359 ± 0.0049"},
      {"measurement": "apoptotic fraction of cells", "setting": "SKMEL28; 48 h, 0.316 µM", "result": "0.0364 ± 0.0017"},
      {"measurement": "apoptotic fraction of cells", "setting": "SKMEL28; 48 h, 1 µM", "result": "0.038 ± 0.006"},
      {"measurement": "apoptotic fraction of cells", "setting": "SKMEL28; 48 h, 3.16 µM", "result": "0.0538 ± 0.0043"},
      {"measurement": "apoptotic fraction of cells", "setting": "SKMEL28; 72 h, 0.00316 µM", "result": "0.0393 ± 0.0042"},
      {"measurement": "apoptotic fraction of cells", "setting": "SKMEL28; 72 h, 0.01 µM", "result": "0.0398 ± 0.0062"},
      {"measurement": "apoptotic fraction of cells", "setting": "SKMEL28; 72 h, 0.0316 µM", "result": "0.0297 ± 0.0044"},
      {"measurement": "apoptotic fraction of cells", "setting": "SKMEL28; 72 h, 0.1 µM", "result": "0.0272 ± 0.0039"},
      {"measurement": "apoptotic fraction of cells", "setting": "SKMEL28; 72 h, 0.316 µM", "result": "0.0276 ± 0.0026"},
      {"measurement": "apoptotic fraction of cells", "setting": "SKMEL28; 72 h, 1 µM", "result": "0.0399 ± 0.0022"},
      {"measurement": "apoptotic fraction of cells", "setting": "SKMEL28; 72 h, 3.16 µM", "result": "0.147 ± 0.016"},
      {"measurement": "apoptotic fraction of cells", "setting": "MMACSF; 24 h, 0.00316 µM", "result": "0.0413 ± 0.0033"},
      {"measurement": "apoptotic fraction of cells", "setting": "MMACSF; 24 h, 0.01 µM", "result": "0.0384 ± 0.0042"},
      {"measurement": "apoptotic fraction of cells", "setting": "MMACSF; 24 h, 0.0316 µM", "result": "0.0409 ± 0.003"},
      {"measurement": "apoptotic fraction of cells", "setting": "MMACSF; 24 h, 0.1 µM", "result": "0.0412 ± 0.0049"},
      {"measurement": "apoptotic fraction of cells", "setting": "MMACSF; 24 h, 0.316 µM", "result": "0.0459 ± 0.0063"},
      {"measurement": "apoptotic fraction of cells", "setting": "MMACSF; 24 h, 1 µM", "result": "0.0484 ± 0.00084"},
      {"measurement": "apoptotic fraction of cells", "setting": "MMACSF; 24 h, 3.16 µM", "result": "0.0553 ± 0.0034"},
      {"measurement": "apoptotic fraction of cells", "setting": "MMACSF; 48 h, 0.00316 µM", "result": "0.0481 ± 0.0042"},
      {"measurement": "apoptotic fraction of cells", "setting": "MMACSF; 48 h, 0.01 µM", "result": "0.0447 ± 0.0016"},
      {"measurement": "apoptotic fraction of cells", "setting": "MMACSF; 48 h, 0.0316 µM", "result": "0.0414 ± 0.0034"},
      {"measurement": "apoptotic fraction of cells", "setting": "MMACSF; 48 h, 0.1 µM", "result": "0.0439 ± 0.0023"},
      {"measurement": "apoptotic fraction of cells", "setting": "MMACSF; 48 h, 0.316 µM", "result": "0.0499 ± 0.0057"},
      {"measurement": "apoptotic fraction of cells", "setting": "MMACSF; 48 h, 1 µM", "result": "0.0573 ± 0.0045"},
      {"measurement": "apoptotic fraction of cells", "setting": "MMACSF; 48 h, 3.16 µM", "result": "0.122 ± 0.025"},
      {"measurement": "apoptotic fraction of cells", "setting": "MMACSF; 72 h, 0.00316 µM", "result": "0.0401 ± 0.0045"},
      {"measurement": "apoptotic fraction of cells", "setting": "MMACSF; 72 h, 0.01 µM", "result": "0.0441 ± 0.0015"},
      {"measurement": "apoptotic fraction of cells", "setting": "MMACSF; 72 h, 0.0316 µM", "result": "0.0407 ± 0.0026"},
      {"measurement": "apoptotic fraction of cells", "setting": "MMACSF; 72 h, 0.1 µM", "result": "0.0382 ± 0.0048"},
      {"measurement": "apoptotic fraction of cells", "setting": "MMACSF; 72 h, 0.316 µM", "result": "0.0493 ± 0.0083"},
      {"measurement": "apoptotic fraction of cells", "setting": "MMACSF; 72 h, 1 µM", "result": "0.265 ± 0.03"},
      {"measurement": "apoptotic fraction of cells", "setting": "MMACSF; 72 h, 3.16 µM", "result": "0.692 ± 0.038"}
    ]}
  ]
}
